Reference: patent publication US6544511B2, “Plant disease control agent” (Akatsuka Orchid Co., Ltd., priority 2000, dated 2003)
Numbered stars: 1 amine (or outer) side, 2 acyl side, 3 side chain; on linkers, the order of the positions; unused ones are H or OH. Bridge positions count the residues as written; N and C are the ends. Square brackets hold non-standard residues; d marks the D form. Peptide text beside a SMILES is read from it. I, II: the chains in the order shown. Actinocin(9to1) = Cc1c2oc3c(C)ccc(C(=O)[*:1])c3nc-2c(C(=O)[*:2])c(N)c1=O; NMeV = CN[C@H](C(=O)O)C(C)C; Sar = CNCC(=O)O

Legend:
[1] = tested on: Phytophthora cinnamomi MAFF No. 305565; assay: Antibiotic sensitivity test for pathogenic filamentous fungi (mycelial mat diameter); type: cell-based; details: for Sensitivity of Phytophthora cinnamomi against antibiotic: 0.1, 1, 10 μg/ml in potato sucrose agar medium, 3 days (FIGS. 10, 11)
Procedure: (§1) Pathogenic filamentous fungi were tested for their sensitivity against antibiotics belonging to actinomycin and polyen anti-fungal antibiotics shown to be produced by R-5 strain. First, actinomycin D or amphotericin B (polyen anti-fungal antibiotic) was dissolved to concentrations of 0.1, 1, and 10 μg/mil in potato sucrose agar medium cooled to about 45° C., and solidified. Mycelial disks with a diameter of 6 mm, which had been stamped out from mycelial mats of Phytophthora cinnamomi MAFF No. 305565 or Pestalotiopsis sydowiana MAFF No. 305755 pre-cultured for 7 days on potato sucrose agar medium, were inoculated onto the potato sucrose agar medium solidified as described above. Each diameter of the mycelial mats was measured with time for 3 days.

[2] = tested on: Pestalotiopsis sydowiana MAFF No. 305755; assay: as above; type: cell-based; details: for Sensitivity of Pestalotiopsis sydowiana against antibiotic: 0.1, 1, 10 μg/ml in potato sucrose agar medium, 3 days (FIGS. 12, 13)
Procedure: as §1

| SMILES | Sensitivity of Phytophthora cinnamomi against antibiotic [1] | Growth of the mycelia of Pestalotiopsis sydowiana ([2]; 0.1 μg/ml) | Sensitivity of Pestalotiopsis sydowiana against antibiotic [2] | Growth of the mycelial mat of Phytophthora cinnamomi ([1]; 10 μg/ml) | Growth of the mycelia of Pestalotiopsis sydowiana ([2]; 10 μg/ml) |
| --- | --- | --- | --- | --- | --- |
| C[C@@H]1[C@H](O)[C@@H](C)/C=C/C=C/C=C/C=C/C=C/C=C/C=C/[C@H](O[C@@H]2O[C@H](C)[C@@H](O)[C@H](N)[C@@H]2O)C[C@@H]2O[C@](O)(C[C@@H](O)C[C@@H](O)[C@H](O)CC[C@@H](O)C[C@@H](O)CC(=O)O[C@H]1C)C[C@H](O)[C@H]2C(=O)O [amphotericin B] | almost no sensitivity | completely suppressed the growth of the mycelia | high sensitivity |  |  |
| Cc1c2oc3c(C)ccc(C(=O)N[C@@H]4C(=O)N[C@H](C(C)C)C(=O)N5CCC[C@H]5C(=O)N(C)CC(=O)N(C)[C@@H](C(C)C)C(=O)O[C@@H]4C)c3nc-2c(C(=O)N[C@@H]2C(=O)N[C@H](C(C)C)C(=O)N3CCC[C@H]3C(=O)N(C)CC(=O)N(C)[C@@H](C(C)C)C(=O)O[C@@H]2C)c(N)c1=O [actinomycin D] (I: T[dV]P[Sar][NMeV] / II: T[dV]P[Sar][NMeV]; ester I:1-I:C, II:1-II:C; linker I:N-II:N via Actinocin(9to1)) | showed sensitivity |  | weak sensitivity | completely stopped the growth | significantly suppressed the growth |
